# pIC50, pKi: −log10 of the molar value. Entries after “also recorded” stand apart in the source; their conditions may differ.
# Tests used:
# [1] = target: T1, PI3K (p110α/p85α) (Homo sapiens, UniProt P42336); assay: PI3K activity assay (ADP Hunter Plus); format: biochemical; conditions: read-out: IC50, PI3K inhibition
# T1 construct: purchased Carna Biosciences 07CBS-0402A
# Method: The kinase activity was measured by using the commercial ADP Hunter™ Plus assay available from DiscoveRx (#33-016), which is a homogeneous assay to measure the accumulation of ADP, a universal product of kinase activity. […] Reaction was carried out for 1 hour at 25° C. Reagent A and B were sequentially added to the wells and plates were incubated for 30 min at 37° C. […] Values were normalized against the control activity included for each enzyme (i.e., 100% PI3 kinase activity, without compound). These values were plot against the inhibitor concentration and were fit to a sigmoid dose-response curve by using the Graphad software.
# [2] = target: PI3K isoform p110δ (Homo sapiens, UniProt O00329); assay: Inhibition of PI3K isoform p110δ; format: biochemical
# [3] = target: PI3K isoform p1103 (Homo sapiens, UniProt P42338); assay: Inhibition of PI3K isoform p110β; format: biochemical
# [4] = target: PI3K isoform p110γ (Homo sapiens, UniProt P48736); assay: Inhibition of PI3K isoform p110γ; format: biochemical
# [5] = tested on: Preadipocytes 3T3-L1 ectopically expressing C/Ebpβ differentiated into brown adipocytes; assay: 3T3-L1/C/Ebpβ differentiated brown adipocytes treated with PI3Ki; format: cell-based; conditions: 1 μM, 4 h
# Method: Mouse Embryonic Fibroblasts (MEFs) were isolated at E13.5 as previously described^42. For insulin stimulation, primary MEFs were serum starved (0% FBS) for 12 h, followed by 60 min incubation with PBS and then stimulated with 1 μg/ml of insulin (Sigma) during 30 min. For oncogenic transformation, primary MEFs were retrovirally transduced with pLXSN-neo-E6 and either pWZL-blast-middle-T (kindly provided by Jean Zhao, Dana-Farber Cancer Institute, Boston) or pBABE-puro-EGFRL858R (kindly provided by William Sellers and Matthew Meyerson, Addgene plasmid #11012)^43. After the corresponding drug selection 20,000 cells were plated in 10 cm diameter plates, and 2 weeks later were fixed and stained with 20% Giemsa. Immortalized brown adipocyte cell lines were obtained from the interscapular BAT of 3-5 day-old neonates, treated with and cultured as previously described^33. For immortalization, cultures were retrovirally transduced with Large-T antigen (in vector pBABE-puro, kindly provided by James de Caprio, Dana Farber Cancer Institute, Boston). For the reprogramming of 3T3-L1 adipocytes into brownadipocytes, we followed the method previously reported^50. Briefly, 3T3-L1 cells were retrovirally transduced with pBABE-puro-Cebpb (kindly provided by Roger R. Gomis, IRB, Barcelona). After drug selection with puromycin, cells were grown to confluence and subsequently cultured for 48 h with “differentiation medium” (DMEM 10% FBS, 20 nM insulin, 1 nM T3, 1 μM rosiglitazone, 0.5 mM isobutylmethylxanthine, 125 nM indomethacin, 5 μM dexamethasone). After this, cells were exposed to “maintenance medium” (DMEM 10% FBS, 20 nM insulin, 1 nM T3) for 4 days. […]
# (§1) Total RNA from tissues or fibroblasts was extracted using TRIZOL (Invitrogen). Reverse transcription was performed using random primers and Ready-To-Go™ You-Prime First-Strand Beads (GE Healthcare). Quantitative real time-PCR was performed using DNA Master Sybr Green I mix (Applied Biosystems) in an ABI PRISM 7700 thermocycler (Applied Biosystem). […]
# [6] = tested on: pre-brown adipocytes; assay: Immortalized neonatal (pre-)brown adipocytes treated with PI3K inhibitors: phospho-Akt and Ucp1 mRNA; format: cell-based, mice; conditions: 4 h
# Method: Pre-brown adiposcytes were treated with Compound A or with the indicated PI3KI for 4 h. After this time, extracts were prepared for analysis of phospho-Akt (upper panels) or for analysis of Ucp1 mRNA levels (lower panels).
# Mouse Embryonic Fibroblasts (MEFs) were isolated at E13.5 as previously described^42. For insulin stimulation, primary MEFs were serum starved (0% FBS) for 12 h, followed by 60 min incubation with PBS and then stimulated with 1 μg/ml of insulin (Sigma) during 30 min. For oncogenic transformation, primary MEFs were retrovirally transduced with pLXSN-neo-E6 and either pWZL-blast-middle-T (kindly provided by Jean Zhao, Dana-Farber Cancer Institute, Boston) or pBABE-puro-EGFRL858R (kindly provided by William Sellers and Matthew Meyerson, Addgene plasmid #11012)^43. After the corresponding drug selection 20,000 cells were plated in 10 cm diameter plates, and 2 weeks later were fixed and stained with 20% Giemsa. Immortalized brown adipocyte cell lines were obtained from the interscapular BAT of 3-5 day-old neonates, treated with and cultured as previously described^33. For immortalization, cultures were retrovirally transduced with Large-T antigen (in vector pBABE-puro, kindly provided by James de Caprio, Dana Farber Cancer Institute, Boston). For the reprogramming of 3T3-L1 adipocytes into brownadipocytes, we followed the method previously reported^50. Briefly, 3T3-L1 cells were retrovirally transduced with pBABE-puro-Cebpb (kindly provided by Roger R. Gomis, IRB, Barcelona). After drug selection with puromycin, cells were grown to confluence and subsequently cultured for 48 h with “differentiation medium” (DMEM 10% FBS, 20 nM insulin, 1 nM T3, 1 μM rosiglitazone, 0.5 mM isobutylmethylxanthine, 125 nM indomethacin, 5 μM dexamethasone). After this, cells were exposed to “maintenance medium” (DMEM 10% FBS, 20 nM insulin, 1 nM T3) for 4 days. For the experiment shown in FIG. 4d, differentiated 3T3-L1/Cebpβ or non-differentiated neonatal immortalized brown adipocytes cultures were PBS washed and treated with “regular medium” (DMEM 10% FBS) containing 10 μM forskolin (Sigma) and/or or 1 μM Compound A for 4 h.
# Immortalized brown adipocytes were obtained from the interscapular BAT of 3-5 day-old neonates and immortalized by retroviral transduction of Large-T antigen (in vector pBABE-puro, kindly provided by James de Caprio, Dana Farber Cancer Institute, Boston). […]
# as §1, with “For RNA analyses, total” for “Total”, “pre-brown adipocytes” for “tissues or fibroblasts”
# [7] = tested on: SCID mice bearing human NSCLC A549 lung tumors; assay: Body weight of SCID mice bearing A549 lung tumor xenografts; format: in vivo; conditions: 22 mg/kg orally, 9 doses, SCID mice with A549 xenografts
# Method: FIG. 41. Body weight evolution of SCID mice bearing human NSCLC A549 lung tumors when treated with Compound A orally, 9 doses of 22 mg/Kg during day 15th and 30th, versus compounds treated with vehicle.
# In “normal conditions” no body weight loss is observed.
# [8] = alone or in combination with forskolin
# T1 sequence (P42336 whole entry): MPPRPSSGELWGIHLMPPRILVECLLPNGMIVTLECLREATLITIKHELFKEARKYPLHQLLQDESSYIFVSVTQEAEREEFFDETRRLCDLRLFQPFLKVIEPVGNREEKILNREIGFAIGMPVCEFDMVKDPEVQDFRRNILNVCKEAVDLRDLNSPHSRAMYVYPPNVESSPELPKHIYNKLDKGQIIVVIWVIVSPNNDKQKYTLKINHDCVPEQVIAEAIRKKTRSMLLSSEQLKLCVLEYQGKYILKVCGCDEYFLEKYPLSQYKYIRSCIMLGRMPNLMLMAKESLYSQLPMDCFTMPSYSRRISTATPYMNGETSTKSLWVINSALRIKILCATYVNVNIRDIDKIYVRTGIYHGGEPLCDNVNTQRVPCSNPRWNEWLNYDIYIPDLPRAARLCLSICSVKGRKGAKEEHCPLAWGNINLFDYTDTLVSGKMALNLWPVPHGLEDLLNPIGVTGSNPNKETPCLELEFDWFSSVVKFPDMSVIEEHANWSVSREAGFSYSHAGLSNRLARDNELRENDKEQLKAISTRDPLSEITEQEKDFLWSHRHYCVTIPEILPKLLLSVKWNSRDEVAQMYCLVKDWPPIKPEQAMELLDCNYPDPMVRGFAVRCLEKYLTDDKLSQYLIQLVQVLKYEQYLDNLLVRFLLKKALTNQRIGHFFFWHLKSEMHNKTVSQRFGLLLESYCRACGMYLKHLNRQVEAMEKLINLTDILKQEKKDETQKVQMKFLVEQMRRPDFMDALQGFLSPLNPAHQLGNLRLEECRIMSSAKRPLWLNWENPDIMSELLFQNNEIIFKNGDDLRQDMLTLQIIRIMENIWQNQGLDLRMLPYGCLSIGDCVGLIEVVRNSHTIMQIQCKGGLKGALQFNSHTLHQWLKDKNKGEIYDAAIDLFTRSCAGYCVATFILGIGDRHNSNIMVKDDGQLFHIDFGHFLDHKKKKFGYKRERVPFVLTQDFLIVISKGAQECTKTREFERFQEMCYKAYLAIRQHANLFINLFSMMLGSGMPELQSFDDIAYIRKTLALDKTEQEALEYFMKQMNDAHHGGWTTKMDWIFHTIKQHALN
# T1 sequence (P27986 whole entry partner): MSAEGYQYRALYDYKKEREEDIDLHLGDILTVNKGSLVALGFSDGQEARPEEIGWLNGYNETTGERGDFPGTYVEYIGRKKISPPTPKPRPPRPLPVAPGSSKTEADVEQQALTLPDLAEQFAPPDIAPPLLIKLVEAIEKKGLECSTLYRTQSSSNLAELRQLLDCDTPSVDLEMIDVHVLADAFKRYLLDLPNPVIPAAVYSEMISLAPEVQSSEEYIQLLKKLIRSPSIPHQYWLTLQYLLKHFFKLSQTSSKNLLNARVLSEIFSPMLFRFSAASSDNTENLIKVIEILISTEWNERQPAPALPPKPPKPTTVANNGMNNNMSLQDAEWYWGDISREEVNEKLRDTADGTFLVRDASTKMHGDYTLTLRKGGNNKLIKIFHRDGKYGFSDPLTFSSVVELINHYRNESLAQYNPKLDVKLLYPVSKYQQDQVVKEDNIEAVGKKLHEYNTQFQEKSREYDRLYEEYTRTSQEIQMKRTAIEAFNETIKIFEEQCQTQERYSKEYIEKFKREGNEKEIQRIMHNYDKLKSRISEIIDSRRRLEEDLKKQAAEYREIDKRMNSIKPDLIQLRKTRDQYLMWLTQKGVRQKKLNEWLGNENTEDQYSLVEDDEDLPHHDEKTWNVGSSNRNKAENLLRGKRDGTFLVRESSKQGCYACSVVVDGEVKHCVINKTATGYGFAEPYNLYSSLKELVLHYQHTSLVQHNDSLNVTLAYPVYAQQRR
# Sequence of PI3K isoform p1103 (P42338 whole entry, canonical isoform): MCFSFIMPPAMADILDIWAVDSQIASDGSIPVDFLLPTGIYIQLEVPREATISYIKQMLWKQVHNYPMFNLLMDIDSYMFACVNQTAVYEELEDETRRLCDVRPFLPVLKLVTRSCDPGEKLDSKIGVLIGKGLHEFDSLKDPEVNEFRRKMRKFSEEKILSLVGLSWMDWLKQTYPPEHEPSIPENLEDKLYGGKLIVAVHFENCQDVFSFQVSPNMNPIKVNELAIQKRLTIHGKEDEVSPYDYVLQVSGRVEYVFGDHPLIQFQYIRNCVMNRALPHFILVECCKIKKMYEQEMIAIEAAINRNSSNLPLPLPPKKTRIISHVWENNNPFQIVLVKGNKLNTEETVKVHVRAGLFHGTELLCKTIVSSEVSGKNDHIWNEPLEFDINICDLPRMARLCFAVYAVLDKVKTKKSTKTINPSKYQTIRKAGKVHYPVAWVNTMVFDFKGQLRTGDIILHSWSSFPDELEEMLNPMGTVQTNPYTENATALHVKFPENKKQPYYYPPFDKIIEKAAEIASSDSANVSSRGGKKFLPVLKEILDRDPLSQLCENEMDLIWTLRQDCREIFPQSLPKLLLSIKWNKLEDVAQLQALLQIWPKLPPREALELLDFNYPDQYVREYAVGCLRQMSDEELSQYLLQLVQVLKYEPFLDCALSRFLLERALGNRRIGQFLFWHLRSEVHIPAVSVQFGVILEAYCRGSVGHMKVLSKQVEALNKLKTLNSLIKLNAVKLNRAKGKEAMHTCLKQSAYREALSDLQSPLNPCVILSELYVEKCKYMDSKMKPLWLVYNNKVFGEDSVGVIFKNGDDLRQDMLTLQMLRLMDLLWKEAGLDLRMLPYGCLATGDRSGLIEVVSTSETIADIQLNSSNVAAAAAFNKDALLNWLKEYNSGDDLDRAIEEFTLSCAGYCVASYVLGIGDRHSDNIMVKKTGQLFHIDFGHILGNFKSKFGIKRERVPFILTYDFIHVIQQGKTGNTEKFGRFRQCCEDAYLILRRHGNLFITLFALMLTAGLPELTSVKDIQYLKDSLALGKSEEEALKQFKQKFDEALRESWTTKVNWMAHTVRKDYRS
# Sequence of PI3K isoform p1103 (P27986 whole entry partner, canonical isoform): as the sequence (P27986 whole entry partner) above
# Sequence of PI3K isoform p110δ (O00329 whole entry, canonical isoform): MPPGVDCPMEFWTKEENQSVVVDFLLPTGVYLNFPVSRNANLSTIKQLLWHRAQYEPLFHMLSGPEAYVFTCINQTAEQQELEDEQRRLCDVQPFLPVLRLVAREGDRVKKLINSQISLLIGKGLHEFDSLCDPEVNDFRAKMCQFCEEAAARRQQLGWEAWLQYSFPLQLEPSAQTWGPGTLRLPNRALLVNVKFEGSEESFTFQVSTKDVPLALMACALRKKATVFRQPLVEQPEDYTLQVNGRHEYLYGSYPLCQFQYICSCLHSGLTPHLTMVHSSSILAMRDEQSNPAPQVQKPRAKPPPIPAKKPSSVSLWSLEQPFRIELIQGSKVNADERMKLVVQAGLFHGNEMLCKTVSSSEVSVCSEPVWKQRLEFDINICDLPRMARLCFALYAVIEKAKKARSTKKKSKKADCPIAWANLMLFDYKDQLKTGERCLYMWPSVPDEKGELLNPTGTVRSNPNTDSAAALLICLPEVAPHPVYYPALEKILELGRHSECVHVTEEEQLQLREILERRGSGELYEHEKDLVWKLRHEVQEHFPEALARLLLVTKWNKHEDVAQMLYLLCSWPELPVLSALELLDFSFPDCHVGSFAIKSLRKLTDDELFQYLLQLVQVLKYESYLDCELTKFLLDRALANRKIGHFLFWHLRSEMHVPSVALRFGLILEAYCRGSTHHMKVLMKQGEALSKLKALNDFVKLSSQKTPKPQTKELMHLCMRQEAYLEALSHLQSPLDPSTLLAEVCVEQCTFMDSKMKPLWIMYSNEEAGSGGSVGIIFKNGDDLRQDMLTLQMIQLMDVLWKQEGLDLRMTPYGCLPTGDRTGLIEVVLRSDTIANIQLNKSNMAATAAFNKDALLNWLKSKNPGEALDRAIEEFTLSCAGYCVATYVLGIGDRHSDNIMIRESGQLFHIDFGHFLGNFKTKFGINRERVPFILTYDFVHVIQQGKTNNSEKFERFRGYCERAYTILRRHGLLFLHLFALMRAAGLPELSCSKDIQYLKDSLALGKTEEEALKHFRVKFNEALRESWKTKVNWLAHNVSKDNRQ
# Sequence of PI3K isoform p110δ (P27986 whole entry partner, canonical isoform): as the sequence (P27986 whole entry partner) above
# Sequence of PI3K isoform p110γ (P48736 whole entry, canonical isoform): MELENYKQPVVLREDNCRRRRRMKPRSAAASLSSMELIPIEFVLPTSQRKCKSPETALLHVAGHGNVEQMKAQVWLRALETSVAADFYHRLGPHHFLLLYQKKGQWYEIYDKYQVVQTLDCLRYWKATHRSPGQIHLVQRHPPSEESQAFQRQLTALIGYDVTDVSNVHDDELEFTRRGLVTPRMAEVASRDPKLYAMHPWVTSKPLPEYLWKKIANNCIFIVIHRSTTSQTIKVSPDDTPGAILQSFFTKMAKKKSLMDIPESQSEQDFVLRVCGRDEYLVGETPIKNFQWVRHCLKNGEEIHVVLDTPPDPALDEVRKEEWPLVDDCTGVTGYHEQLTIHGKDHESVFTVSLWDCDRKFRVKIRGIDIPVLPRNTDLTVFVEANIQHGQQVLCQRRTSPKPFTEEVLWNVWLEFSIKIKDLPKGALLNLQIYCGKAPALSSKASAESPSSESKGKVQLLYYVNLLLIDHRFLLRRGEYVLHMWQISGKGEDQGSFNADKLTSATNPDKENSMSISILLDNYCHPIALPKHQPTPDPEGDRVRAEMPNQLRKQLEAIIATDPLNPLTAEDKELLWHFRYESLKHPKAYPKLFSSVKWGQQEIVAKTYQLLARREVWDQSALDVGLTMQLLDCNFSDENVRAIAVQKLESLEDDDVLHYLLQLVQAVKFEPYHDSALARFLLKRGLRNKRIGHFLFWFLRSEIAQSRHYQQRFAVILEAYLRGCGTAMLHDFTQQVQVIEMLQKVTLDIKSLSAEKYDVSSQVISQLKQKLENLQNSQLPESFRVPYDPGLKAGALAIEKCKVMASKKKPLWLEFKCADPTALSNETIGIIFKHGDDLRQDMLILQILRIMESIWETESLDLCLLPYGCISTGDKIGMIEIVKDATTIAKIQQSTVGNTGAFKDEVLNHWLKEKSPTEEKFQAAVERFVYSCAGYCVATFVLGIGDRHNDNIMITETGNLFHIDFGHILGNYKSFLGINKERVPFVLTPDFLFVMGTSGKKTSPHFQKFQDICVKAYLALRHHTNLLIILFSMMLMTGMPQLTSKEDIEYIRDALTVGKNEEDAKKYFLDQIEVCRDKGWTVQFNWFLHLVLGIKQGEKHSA
compound,measurement,setting,value
CS(=O)(=O)N1CCN(Cc2cn3c(Cl)c(-c4cnc(N)nc4)nc(N4CCOCC4)c3n2)CC1 [Compound A],pIC50,[1],8.62
same,pKi,[2],8.01
same,pKi,[3],< 7.00
same,pKi,[4],< 7.00
same,levels of phospho-Akt,[5],severe decrease
same,Pgc1α expression,[5]; [8],upregulation
same,Ucp1 expression,[5]; [8],upregulation
same,inhibition of the phosphorylation of Akt,[6]; 1 microM,measurable inhibition
same,up-regulation of Ucp1 mRNA levels,[6]; 10-20 microM,8-20 fold
same,inhibition of the phosphorylation of Akt,[6]; 10 microM,complete inhibition
same,expression of Ucp1,"[6]; immortalized neonatal brown adipocytes (three independent lines), 1 μM",upregulated
same,body weight of non-obese mice,[7],no changes in body weight; also recorded: “lack” of weight loss activity
